Source: US20040023952A1 (priority 2002, published 2004)

Tested on: V1 cortical cells
Type: in vivo, rhesus monkeys (Macaca mulatta)
Settings: for signal-to-noise ratio of cortical cells (response to appropriate stimuli divided by spontaneous discharge rate): FIG. 7; for peak response (maximum visually evoked response) of V1 cortical cells / spontaneous activity of V1 cortical cells: intracortical delivery through microelectrode; for peak response (maximum visually evoked response) of V1 cortical cells: FIG. 5; for spontaneous activity of V1 cortical cells: FIG. 6; for direction selectivity of a representative cortical cell / orientation selectivity of a representative cortical cell / peak response of a representative cortical cell / spontaneous activity of a representative cortical cell: single cell of old monkey, FIG. 10, three minutes after GABA or muscimol application, within five minutes of bicuculline
Excerpt: Extracellular single-neuron recording techniques were used to examine the stimulus selectivities of VI cells in very old rhesus monkeys showing normal optics and retinogeniculate projections. A total of 187 neurons were studied in 4 young rhesus monkeys (Maraca mulatta), and 254 neurons in 4 old rhesus monkeys. Subjects for physiological experiments were abbreviated as OM1-4 (for old monkey 1-4) and YM1-4 (for young monkey 1-4). Retinal data were obtained from one additional young macaque (YM5, Macaca fascicularis). Multiple ophthalmological exams were conducted to ensure optical and retinal health of all subjects prior to testing.
Subjects for this study were four young adult (7-9 year old) and four very old (28-30 year old) female rhesus monkeys (Macaca mullata). […] Thus, the 28-30 year old monkeys were considered old, whereas the 7-9 year old monkeys were at an age considered sexually mature. Retinal control data for FIG. 1 are provided from one additional young female Macaca facsicularis, which was used in previous studies. Onset latency data from YM4 are published. Monkeys were examined ophthalmoscopically, and no apparent optical or retinal problems were detected that would impair visual function. Retinal blood vessels, lens clarity and the maculae all appeared normal. All cells studied had receptive fields between 2 and 5 degrees from the fovea. Monkeys were prepared for electrophysiological recording using standard techniques consistent with Society for Neuroscience and National Institute of Health guidelines.
Subjects were sedated with Ketamine HC1 (Ketalar, Parke-Davis, Morris Plains, N.J.) and then anesthetized with halothane (5%; Halocarton Laboratories, River Edge, N.J.) in a 70:30 mixture of […]. Intravenous and tracheal cannulae were inserted, the animals were placed in a stereotaxic apparatus, and pressure points and incisions were infiltrated with a long-acting anesthetic (2% lidocaine HCI, Copley Pharmaccuticak, Canton, Mass.). A mixture of D-tubocurarine (0.4 mg per kg per hour) and gallamine triethiodide (7 mg per kg per hour) was infused intravenously to induce and maintain paralysis. Animals were ventilated, and anesthesia was maintained with a mixture of nitrous oxide (75%), oxygen (25%) and halothane (0.25-1.0%) as needed.
A small burr hole was made above the striate cortex (V1), and filled with a 4% solution of agar in saline and sealed with wax. The eyes were protected from desiccation with contact lenses; spectacle lenses and artificial pupils were used when needed to focus the eyes on a tangent screen positioned 228 cm from the retina. The locations of the optic discs and foveae were determined repeatedly during the course of each recording session. No visible deterioration in optics occurred during the experimental period (2-5 days).
Extracellular action potentials of isolated cortical cells were recorded with microelectrodes having impedances of 3-5 MΩ. The electrode was advanced using a hydraulic microdrive (David Kopf instruments, Tojunga, Calif.) to precisely position it. The position of the electrode was confirmed by determining the receptive filed positions of the cortical cells at the recording site. A1 V1 cells studied had receptive fields between about 3 and 7 degrees from the fovea.
After placing the microelectrode as in Example 1, visual stimuli were measured using a Tektronix (Beaverton, Oreg.) 608 display driven by a Picasso (Inning Cambridge, Mass.) image synthesizer and a texture/motion generator (Innisfree). The Picasso and texture/motion generator were computer controlled in conjunction with a hardware and software package from Cambridge Electronics Design (Cambridge, England). The center of the display screen was 171 cm from the animal's retina.
The physiological orientation biases and direction biases of cortical cell were studied quantitatively. The orientation of each drifting stimulus presented was orthogonal to its direction of motion. […]

| SMILES | signal-to-noise ratio of cortical cells (response to appropriate stimuli divided by spontaneous discharge rate) (old monkeys) | time until drug effects wear off after administration ceases (old monkeys, intracortical delivery) | peak response (maximum visually evoked response) of V1 cortical cells (old monkeys) | spontaneous activity of V1 cortical cells (old monkeys) | direction selectivity of a representative cortical cell | orientation selectivity of a representative cortical cell | peak response of a representative cortical cell | spontaneous activity of a representative cortical cell | number/proportion of orientation and direction selective cells in area V1 (old monkeys, FIGS. 8 and 9) | time until effects are seen after drug administration (old monkeys, intracortical delivery, current 15-50 n amp for 1-3 minutes) |
| --- | --- | --- | --- | --- | --- | --- | --- | --- | --- | --- |
| NCc1cc(=O)[nH]o1 [muscimol] | increased signal-to-noise ratios dramatically | Five minutes after the discontinuation | reduce the peak responses and spontaneous activity of cortical cells to the normal levels seen in young monkeys | reduce the peak responses and spontaneous activity of cortical cells to the normal levels seen in young monkeys | very strong direction selectivity | moderate orientation selectivity | decreased peak response | decreased spontaneous activity | – | – |
| NCCCC(=O)O [GABA, Gamma-aminobutyric acid] | increased signal-to-noise ratios dramatically | – | reduce the peak responses and spontaneous activity of cortical cells to the normal levels seen in young monkeys | reduce the peak responses and spontaneous activity of cortical cells to the normal levels seen in young monkeys | moderate direction selectivity | strong orientation | peak response decreased | decreased as did its spontaneous activity | very close to what is found in normal young monkeys | Three to five minutes |
